Source: ChEMBL document CHEMBL2396574, “Design, synthesis and evaluation of retinoids with novel bulky hydrophobic partial structures” (Bioorg Med Chem, 2013)
Calls of active or inactive are those of the source. No cut-off for these calls is given here.

System: HL-60
Experiment: Induction of human HL60 cell differentiation into myeloid cells at 100 nM after 4 days by NBT reduction assay relative to control
Format: functional
Details: not given

Structure (SMILES)	Activity [%]
CC12CCCc3cc(C(=O)Nc4ccc(C(=O)O)cn4)cc(c31)CCC2	61
O=C(O)c1ccc(NC(=O)c2cc3c4c(c2)CCCC4CCC3)nc1	59
O=C(O)c1ccc(C(=O)Nc2cc3c4c(c2)CCCCC4CCCC3)cc1	53
COc1cc(NC(=O)c2cc3c4c(c2)CCCC4CCC3)ccc1C(=O)O	10
CC12CCCc3cc(C(=O)Nc4ccc(C(=O)O)c(Cl)c4)cc(c31)CCC2	21
O=C(O)c1ccc(NC(=O)c2cc3cc(c2)CCCCCCCCCC3)cc1	38
CC1(C)CCC(C)(C)c2cc(NC(=O)c3ccc(C(=O)O)cc3)ccc21 [TAMIBAROTENE]	68
O=C(Nc1ccc(C(=O)O)c(O)c1)c1cc2c3c(c1)CCCC3CCC2	42

Biological target: T1, Retinoic acid receptor beta (Homo sapiens) (UniProt P10826)
T1 sequence (whole entry): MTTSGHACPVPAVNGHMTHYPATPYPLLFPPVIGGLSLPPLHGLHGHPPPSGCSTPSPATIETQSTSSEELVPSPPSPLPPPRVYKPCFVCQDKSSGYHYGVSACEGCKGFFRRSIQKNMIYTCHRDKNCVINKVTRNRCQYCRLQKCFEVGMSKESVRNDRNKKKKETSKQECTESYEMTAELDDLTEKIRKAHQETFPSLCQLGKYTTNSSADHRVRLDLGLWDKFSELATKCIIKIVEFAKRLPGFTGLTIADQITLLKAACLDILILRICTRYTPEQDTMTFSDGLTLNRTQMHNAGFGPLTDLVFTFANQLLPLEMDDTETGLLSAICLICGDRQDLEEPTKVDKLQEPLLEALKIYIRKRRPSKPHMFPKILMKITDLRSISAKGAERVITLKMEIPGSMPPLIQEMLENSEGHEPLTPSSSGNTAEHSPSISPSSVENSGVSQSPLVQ
Experiment: Transactivation of Gal4-fused RARbeta (unknown origin) expressed in African green monkey COS1 cells at 100 nM by luciferase reporter gene assay relative to DMSO-treated control
Format: cell-based
Details: COS-1

Structure (SMILES)	fold change (FC)
CC12CCCc3cc(C(=O)Nc4ccc(C(=O)O)cn4)cc(c31)CCC2	40
CC12CCCc3cc(C(=O)Nc4ccc(C(=O)O)c(Cl)c4)cc(c31)CCC2	8
O=C(O)c1ccc(NC(=O)c2cc3cc(c2)CCCCCCCCCC3)cc1	13

Results, then the compound that gave them:

fold change (FC)	Structure (SMILES)
40	O=C(O)c1ccc(NC(=O)c2cc3c4c(c2)CCCC4CCC3)nc1
13	O=C(O)c1ccc(C(=O)Nc2cc3c4c(c2)CCCCC4CCCC3)cc1
2	COc1cc(NC(=O)c2cc3c4c(c2)CCCC4CCC3)ccc1C(=O)O
6	O=C(Nc1ccc(C(=O)O)c(O)c1)c1cc2c3c(c1)CCCC3CCC2

Biological target: T2, Retinoic acid receptor RXR-beta (Homo sapiens) (UniProt P28702)
T2 sequence (whole entry): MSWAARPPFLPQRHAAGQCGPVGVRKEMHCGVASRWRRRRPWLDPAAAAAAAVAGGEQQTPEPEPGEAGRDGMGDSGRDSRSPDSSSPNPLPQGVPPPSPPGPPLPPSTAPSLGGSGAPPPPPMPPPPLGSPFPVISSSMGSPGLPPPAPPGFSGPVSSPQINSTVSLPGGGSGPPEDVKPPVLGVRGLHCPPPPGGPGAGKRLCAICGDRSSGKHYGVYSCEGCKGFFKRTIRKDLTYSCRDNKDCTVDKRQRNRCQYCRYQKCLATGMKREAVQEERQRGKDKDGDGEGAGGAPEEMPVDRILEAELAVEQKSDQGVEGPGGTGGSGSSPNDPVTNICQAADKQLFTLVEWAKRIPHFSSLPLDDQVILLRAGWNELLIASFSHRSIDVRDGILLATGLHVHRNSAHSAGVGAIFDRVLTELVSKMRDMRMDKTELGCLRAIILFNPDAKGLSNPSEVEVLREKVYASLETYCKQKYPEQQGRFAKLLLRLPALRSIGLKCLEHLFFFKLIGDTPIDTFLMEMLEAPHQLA
Experiment: Transactivation of full-length RXRbeta (unknown origin) expressed in African green monkey COS1 cells at 1000 nM by luciferase reporter gene assay
Format: cell-based
Details: COS-1

Structure (SMILES)	Activity
CC12CCCc3cc(C(=O)Nc4ccc(C(=O)O)cn4)cc(c31)CCC2	inactive
CC12CCCc3cc(C(=O)Nc4ccc(C(=O)O)c(Cl)c4)cc(c31)CCC2	inactive
O=C(O)c1ccc(NC(=O)c2cc3cc(c2)CCCCCCCCCC3)cc1	inactive
CC1(C)CCC(C)(C)c2cc(NC(=O)c3ccc(C(=O)O)cc3)ccc21 [TAMIBAROTENE]	inactive

Second part, the compound after the results:

Activity	Structure (SMILES)
inactive	O=C(O)c1ccc(NC(=O)c2cc3c4c(c2)CCCC4CCC3)nc1
inactive	O=C(O)c1ccc(C(=O)Nc2cc3c4c(c2)CCCCC4CCCC3)cc1
inactive	COc1cc(NC(=O)c2cc3c4c(c2)CCCC4CCC3)ccc1C(=O)O
inactive	O=C(Nc1ccc(C(=O)O)c(O)c1)c1cc2c3c(c1)CCCC3CCC2

System: HL-60
Experiment: Induction of human HL60 cell differentiation into myeloid cells at 10 nM after 4 days by NBT reduction assay relative to control
Format: functional
Details: not given

Structure (SMILES)	Activity [%]
CC12CCCc3cc(C(=O)Nc4ccc(C(=O)O)cn4)cc(c31)CCC2	41
O=C(O)c1ccc(NC(=O)c2cc3c4c(c2)CCCC4CCC3)nc1	54
O=C(O)c1ccc(C(=O)Nc2cc3c4c(c2)CCCCC4CCCC3)cc1	13
COc1cc(NC(=O)c2cc3c4c(c2)CCCC4CCC3)ccc1C(=O)O	7
CC12CCCc3cc(C(=O)Nc4ccc(C(=O)O)c(Cl)c4)cc(c31)CCC2	19
O=C(O)c1ccc(NC(=O)c2cc3cc(c2)CCCCCCCCCC3)cc1	30
CC1(C)CCC(C)(C)c2cc(NC(=O)c3ccc(C(=O)O)cc3)ccc21 [TAMIBAROTENE]	60
O=C(Nc1ccc(C(=O)O)c(O)c1)c1cc2c3c(c1)CCCC3CCC2	24

Biological target: T3, Retinoic acid receptor RXR-gamma (Homo sapiens) (UniProt P48443)
T3 sequence (whole entry): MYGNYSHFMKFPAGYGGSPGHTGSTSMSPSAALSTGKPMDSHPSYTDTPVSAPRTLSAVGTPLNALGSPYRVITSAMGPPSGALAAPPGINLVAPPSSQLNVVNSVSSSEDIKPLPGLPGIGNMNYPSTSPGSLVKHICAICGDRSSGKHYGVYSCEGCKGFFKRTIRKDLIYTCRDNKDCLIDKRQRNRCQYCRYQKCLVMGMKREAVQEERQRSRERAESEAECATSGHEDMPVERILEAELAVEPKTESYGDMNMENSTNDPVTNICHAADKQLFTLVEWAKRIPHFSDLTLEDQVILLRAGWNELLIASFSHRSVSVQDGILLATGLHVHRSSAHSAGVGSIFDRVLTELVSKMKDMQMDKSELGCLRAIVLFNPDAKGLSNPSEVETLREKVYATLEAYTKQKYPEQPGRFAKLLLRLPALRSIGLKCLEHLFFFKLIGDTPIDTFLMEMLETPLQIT
Experiment: Transactivation of full-length RXRgamma (unknown origin) expressed in African green monkey COS1 cells at 1000 nM by luciferase reporter gene assay
Format: cell-based
Details: COS-1

Structure (SMILES)	Activity
CC12CCCc3cc(C(=O)Nc4ccc(C(=O)O)cn4)cc(c31)CCC2	inactive
CC12CCCc3cc(C(=O)Nc4ccc(C(=O)O)c(Cl)c4)cc(c31)CCC2	inactive
O=C(O)c1ccc(NC(=O)c2cc3cc(c2)CCCCCCCCCC3)cc1	inactive
CC1(C)CCC(C)(C)c2cc(NC(=O)c3ccc(C(=O)O)cc3)ccc21 [TAMIBAROTENE]	inactive

The remaining lines, values ahead:

Activity	Structure (SMILES)
inactive	O=C(O)c1ccc(NC(=O)c2cc3c4c(c2)CCCC4CCC3)nc1
inactive	O=C(O)c1ccc(C(=O)Nc2cc3c4c(c2)CCCCC4CCCC3)cc1
inactive	COc1cc(NC(=O)c2cc3c4c(c2)CCCC4CCC3)ccc1C(=O)O
inactive	O=C(Nc1ccc(C(=O)O)c(O)c1)c1cc2c3c(c1)CCCC3CCC2

Biological target: T4, Retinoic acid receptor gamma (Homo sapiens) (UniProt P13631)
T4 sequence (whole entry): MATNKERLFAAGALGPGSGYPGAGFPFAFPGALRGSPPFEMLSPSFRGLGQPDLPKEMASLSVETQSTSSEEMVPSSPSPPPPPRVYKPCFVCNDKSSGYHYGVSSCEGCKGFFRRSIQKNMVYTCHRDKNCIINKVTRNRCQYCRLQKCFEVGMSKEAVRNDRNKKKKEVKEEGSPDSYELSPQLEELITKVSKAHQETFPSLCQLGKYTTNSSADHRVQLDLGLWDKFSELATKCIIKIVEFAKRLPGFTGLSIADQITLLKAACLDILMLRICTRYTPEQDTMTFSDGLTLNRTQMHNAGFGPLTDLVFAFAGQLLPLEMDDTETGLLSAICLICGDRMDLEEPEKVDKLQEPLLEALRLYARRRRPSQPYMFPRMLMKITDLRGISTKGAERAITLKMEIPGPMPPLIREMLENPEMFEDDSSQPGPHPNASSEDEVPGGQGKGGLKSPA
Experiment: Transactivation of Gal4-fused RARgamma (unknown origin) expressed in African green monkey COS1 cells at 100 nM by luciferase reporter gene assay relative to DMSO-treated control
Format: cell-based
Details: COS-1

Structure (SMILES)	fold change (FC)
CC12CCCc3cc(C(=O)Nc4ccc(C(=O)O)cn4)cc(c31)CCC2	25
CC12CCCc3cc(C(=O)Nc4ccc(C(=O)O)c(Cl)c4)cc(c31)CCC2	1
O=C(O)c1ccc(NC(=O)c2cc3cc(c2)CCCCCCCCCC3)cc1	1

Second part, the compound after the results:

fold change (FC)	Structure (SMILES)
20	O=C(O)c1ccc(NC(=O)c2cc3c4c(c2)CCCC4CCC3)nc1
1	O=C(O)c1ccc(C(=O)Nc2cc3c4c(c2)CCCCC4CCCC3)cc1
1	COc1cc(NC(=O)c2cc3c4c(c2)CCCC4CCC3)ccc1C(=O)O
2	O=C(Nc1ccc(C(=O)O)c(O)c1)c1cc2c3c(c1)CCCC3CCC2
